≈ marks a conversion by molar mass, not a printed value. Like-named read-outs stand apart in the source and are kept apart here.
Tests used:
[1] = tested on: M. tuberculosis in human macrophages; experiment: MIC and MBC against intracellular bacteria in human macrophages; format: cell-based, Mycobacterium tuberculosis
[2] = in vivo; design: species or system rats; conditions: rat
Protocol: In chronic studies with dogs and rats, the no-observed-adverse-effect-level was 1000 mg/kg. […] Significant partitioning of drug-related radioactivity to the formed elements of the blood was observed. […] The urine contained a small amount (5.5%) of radioactivity.
Pharmacokinetic parameters were determined following single and multiple doses in rats and dogs. The doses in rats and dogs were based upon those utilized in the single and multiple-dose toxicology studies. In addition, the absorption, distribution, metabolism, and elimination of rifalazil was studied in rats and dogs. These studies confirmed prior findings that there are species differences vis-a-vis sensitivity to and response to treatment with rifalazil.

[3] = Clinical trial 005, rifalazil concentration in plasma of tuberculosis patients; format: in vivo, human; conditions: for maximum concentration of the drug in plasma: six hours; for concentration at 3 h / concentration at 11 day / concentration at 15 day / concentration at 0 h / concentration at 2 h / concentration at 5 h / concentration at 9 h / concentration at 12 h / concentration at 24 h / concentration at 48 h / concentration at 72 h: human, plasma; for concentration at 3 h: three hours; for concentration at 11 day: Day 11; for concentration at 15 day: Day 15; for concentration at 0 h: Hour 0; for concentration at 2 h: Hour 2; for concentration at 5 h: Hour 5; for concentration at 9 h: Hour 9; for concentration at 12 h: Hour 12; for concentration at 24 h: Hour 24; for concentration at 48 h: Hour 48; for concentration at 72 h: Hour 72
Protocol: Definite diagnosis and evaluation of treatment efficacy requires direct examination of sputum for the presence of M. tuberculosis. The extent of M. tuberculosis infection is determined by number of bacteria able to form colonies and is expressed as colony forming units. When the number of colony forming units (CFU) is high, the infection is unhindered. When the CFU decreases, the number of active M. tuberculosis bacteria decreases. The CFU, typically expressed as Log10, have therefore important diagnostic and treatment evaluative value.
Table 21 summarizes the plasma concentrations data of rifalazil measured in patients that received rifalazil at zero hour. The data are separated into 2 groups and are identified as INH+10 mg rifalazil (Group 3) and INH+25 mg rifalazil (Group 4). The concentration of rifalazil in plasma is presented in ng/mL and are shown as a timecourse (hours and days) wherein values were determined at several times over the two weeks of the study.

[4] = tested on: M. tuberculosis in human macrophages; conditions: intracellular, cited from earlier work
[5] = tested on: M. tuberculosis strain Erdman; conditions: cited from earlier work
[6] = 10 mg, INH + 10 mg KRM, read-out: Rifalazil Concentration in Plasma, Max
[7] = 10 mg, INH + 10 mg KRM, read-out: Rifalazil Concentration in Plasma, Med
[8] = 10 mg, INH + 10 mg KRM, read-out: Rifalazil Concentration in Plasma, Min
[9] = 25 mg, INH + 25 mg KRM, read-out: Rifalazil Concentration in Plasma, Max
[10] = 25 mg, INH + 25 mg KRM, read-out: Rifalazil Concentration in Plasma, Mean
[11] = 25 mg, INH + 25 mg KRM, read-out: Rifalazil Concentration in Plasma, Med
[12] = 25 mg, INH + 25 mg KRM, read-out: Rifalazil Concentration in Plasma, Min
[13] = INH + 10 mg KRM, read-out: Rifalazil Concentration in Plasma, Mean
[14] = INH + 10 mg KRM, read-out: Rifalazil Concentration in Plasma, Max
[15] = INH + 10 mg KRM, read-out: Rifalazil Concentration in Plasma, Med
[16] = INH + 10 mg KRM, read-out: Rifalazil Concentration in Plasma, Min
[17] = INH + 25 mg KRM, read-out: Rifalazil Concentration in Plasma, Max
[18] = INH + 25 mg KRM, read-out: Rifalazil Concentration in Plasma, Mean
[19] = INH + 25 mg KRM, read-out: Rifalazil Concentration in Plasma, Med
[20] = INH + 25 mg KRM, read-out: Rifalazil Concentration in Plasma, Min

SMILES: CO[C@H]1/C=C/O[C@@]2(C)Oc3c(C)c(O)c4c(=O)c(c5oc6cc(N7CCN(CC(C)C)CC7)cc(O)c6nc-5c4c3C2=O)NC(=O)/C(C)=C\C=C\[C@H](C)[C@H](O)[C@@H](C)[C@@H](O)[C@@H](C)[C@H](OC(C)=O)[C@@H]1C [Rifalazil, 3′-hydroxy-5′-(4-isobutyl-1-piperazinyl)benzoxasinorifamycin]
- MIC and MBC fold lower than rifampin [1]: at least 10 fold
- CL/F ([2]; female): 3.62 mL/min/kg
- CL/F ([2]; male): 3.07 mL/min/kg
- half-life [2]: 12.5 h
- radioactivity in the urine [2]: 5.5%
- radioactivity recovered in the feces [2]: 84%
- bioavailability ([2]; 3 mg/kg): 30 to 40%
- maximum concentration of the drug in plasma ([3]; 10 mg rifalazil): 12.68 ng/mL
- maximum concentration of the drug in plasma ([3]; 25 mg rifalazil): 28.47 ng/mL
- drug in plasma ([3]; 72 hours (3 days)): still measurable amount of drug in plasma
- Rifalazil Concentration in Plasma, Max ([3]; INH + 10 mg KRM, Day 4 M-0): 0 ng/mL
- Rifalazil Concentration in Plasma, Mean ([3]; INH + 10 mg KRM, Day 4 M-0): 0 ng/mL
- Rifalazil Concentration in Plasma, Med ([3]; INH + 10 mg KRM, Day 4 M-0): 0 ng/mL
- Rifalazil Concentration in Plasma, Min ([3]; INH + 10 mg KRM, Day 4 M-0): 0 ng/mL
- Rifalazil Concentration in Plasma, Max ([3]; INH + 10 mg KRM, Day 8 M-4): 21.9 ng/mL
- Rifalazil Concentration in Plasma, Mean ([3]; INH + 10 mg KRM, Day 8 M-4): 18.31 ng/mL
- Rifalazil Concentration in Plasma, Min ([3]; INH + 10 mg KRM, Day 8 M-4): 9.7 ng/mL
- Rifalazil Concentration in Plasma, Max ([3]; INH + 25 mg KRM, Day 4 M-0): 0 ng/mL
- Rifalazil Concentration in Plasma, Mean ([3]; INH + 25 mg KRM, Day 4 M-0): 0 ng/mL
- Rifalazil Concentration in Plasma, Med ([3]; INH + 25 mg KRM, Day 4 M-0): 0 ng/mL
- Rifalazil Concentration in Plasma, Min ([3]; INH + 25 mg KRM, Day 4 M-0): 0 ng/mL
- Rifalazil Concentration in Plasma, Max ([3]; INH + 25 mg KRM, Day 8 M-4): 41.0 ng/mL
- Rifalazil Concentration in Plasma, Mean ([3]; INH + 25 mg KRM, Day 8 M-4): 29.02 ng/mL
- Rifalazil Concentration in Plasma, Med ([3]; INH + 25 mg KRM, Day 8 M-4): 28.5 ng/mL
- Rifalazil Concentration in Plasma, Min ([3]; INH + 25 mg KRM, Day 8 M-4): 11.7 ng/mL
- concentration at 3 h ([3]; 10 mg, 10 mg of rifalazil): 9.7 ng/mL
- concentration at 11 day [3, 6]: 2.5 ng/mL
- concentration at 11 day [3, 7]: 1.4 ng/mL
- concentration at 11 day [3, 8]: 2 ng/mL
- concentration at 15 day [3, 6]: 0 ng/mL
- concentration at 15 day [3, 7]: 3 ng/mL
- concentration at 15 day [3, 8]: 0 ng/mL
- concentration at 3 h ([3]; 25 mg, 25 mg rifalazil): 15.9 ng/mL
- concentration at 11 day [3, 9]: 9.1 ng/mL
- concentration at 11 day [3, 10]: 4.12 ng/mL
- concentration at 11 day [3, 11]: 3.3 ng/mL
- concentration at 11 day [3, 12]: 2.2 ng/mL
- concentration at 15 day [3, 9]: 3.4 ng/mL
- concentration at 15 day [3, 10]: 0.95 ng/mL
- concentration at 15 day [3, 11]: 0 ng/mL
- concentration at 15 day [3, 12]: 0 ng/mL
- concentration at 11 day [3, 13]: 2.4 ng/mL
- concentration at 15 day [3, 13]: 3 ng/mL
- concentration at 0 h [3, 14]: 0 ng/mL
- concentration at 0 h [3, 13]: 0 ng/mL
- concentration at 0 h [3, 15]: 3 ng/mL
- concentration at 0 h [3, 16]: 0 ng/mL
- concentration at 2 h [3, 14]: 20.3 ng/mL
- concentration at 2 h [3, 13]: 9.7 ng/mL
- concentration at 2 h [3, 15]: 9 ng/mL
- concentration at 2 h [3, 16]: 0 ng/mL
- concentration at 5 h [3, 14]: 22.7 ng/mL
- concentration at 5 h [3, 13]: 12.5 ng/mL
- concentration at 5 h [3, 15]: 11.9 ng/mL
- concentration at 5 h [3, 16]: 4.2 ng/mL
- concentration at 9 h [3, 14]: 19.2 ng/mL
- concentration at 9 h [3, 13]: 9.75 ng/mL
- concentration at 9 h [3, 15]: 10.3 ng/mL
- concentration at 9 h [3, 16]: 3 ng/mL
- concentration at 12 h [3, 14]: 11.9 ng/mL
- concentration at 12 h [3, 13]: 10.7 ng/mL
- concentration at 12 h [3, 15]: 11.4 ng/mL
- concentration at 12 h [3, 16]: 6.2 ng/mL
- concentration at 24 h [3, 14]: 5 ng/mL
- concentration at 24 h [3, 13]: 3.6 ng/mL
- concentration at 24 h [3, 15]: 3.55 ng/mL
- concentration at 24 h [3, 16]: 2.3 ng/mL
- concentration at 48 h [3, 14]: 2.5 ng/mL
- concentration at 48 h [3, 13]: 1.4 ng/mL
- concentration at 48 h [3, 15]: 2.5 ng/mL
- concentration at 48 h [3, 16]: 2.2 ng/mL
- concentration at 72 h [3, 14]: 2.2 ng/mL
- concentration at 72 h [3, 15]: 1 ng/mL
- concentration at 72 h [3, 16]: 0 ng/mL
- concentration at 0 h [3, 17]: 0 ng/mL
- concentration at 0 h [3, 18]: 0 ng/mL
- concentration at 0 h [3, 19]: 0 ng/mL
- concentration at 0 h [3, 20]: 0 ng/mL
- concentration at 2 h [3, 17]: 26.4 ng/mL
- concentration at 2 h [3, 18]: 15.3 ng/mL
- concentration at 2 h [3, 19]: 11.4 ng/mL
- concentration at 2 h [3, 20]: 2.3 ng/mL
- concentration at 5 h [3, 17]: 42.7 ng/mL
- concentration at 5 h [3, 18]: 25.5 ng/mL
- concentration at 5 h [3, 19]: 30.9 ng/mL
- concentration at 5 h [3, 20]: 5.5 ng/mL
- concentration at 9 h [3, 17]: 38.2 ng/mL
- concentration at 9 h [3, 18]: 21.6 ng/mL
- concentration at 9 h [3, 19]: 22.1 ng/mL
- concentration at 9 h [3, 20]: 4.2 ng/mL
- concentration at 12 h [3, 17]: 20.5 ng/mL
- concentration at 12 h [3, 18]: 16.3 ng/mL
- concentration at 12 h [3, 19]: 18.1 ng/mL
- concentration at 12 h [3, 20]: 11.1 ng/mL
- concentration at 24 h [3, 17]: 12.2 ng/mL
- concentration at 24 h [3, 18]: 7.72 ng/mL
- concentration at 24 h [3, 19]: 6.7 ng/mL
- concentration at 24 h [3, 20]: 4.3 ng/mL
- concentration at 48 h [3, 17]: 5.3 ng/mL
- concentration at 48 h [3, 18]: 2.15 ng/mL
- concentration at 48 h [3, 19]: 3.9 ng/mL
- concentration at 48 h [3, 20]: 0 ng/mL
- concentration at 72 h [3, 17]: 3.2 ng/mL
- concentration at 72 h [3, 18]: 2.15 ng/mL
- concentration at 72 h [3, 19]: 2.7 ng/mL
- concentration at 72 h [3, 20]: 0 ng/mL
- MBC ([4]; strain Atencio): 8 ng/mL (≈ 8.5 nM)
- MIC ([4]; strain Atencio): 4 ng/mL (≈ 4.25 nM)
- MBC ([4]; strain Erdman): 8 ng/mL (≈ 8.5 nM)
- MIC ([4]; strain Erdman): 8 ng/mL (≈ 8.5 nM)
- MBC ([4]; strain H37Rv): 16 ng/mL (≈ 17 nM)
- MIC ([4]; strain H37Rv): 4 ng/mL (≈ 4.25 nM)
- reduction of bacterial load in lungs and spleens, comparison of drugs ([5]; 20 mg/kg, five times per week for four weeks): reduced bacterial loads to a significantly greater extent than the other two drugs
- activity against organisms in lungs, comparison of treatments ([5]; four weeks treatment): most active single-agent
- cell counts in lungs compared to early controls ([5]; four weeks treatment): significantly reduced cell counts in lungs
- cell counts in lungs compared to late controls ([5]; four weeks treatment): reduced cell counts in lungs
- CFUs in the spleen ([5]; rifalazil 20 mg/kg, PZA 150 mg/kg, four weeks): most active single-agent

Source: patent US7772228B2, “Method for treatment of bacterial infections with once or twice-weekly administered rifalazil” (priority 1998, dated 2010)
